According to paper PMC10958880, “Pocket Crafter: a 3D generative modeling based workflow for the rapid generation of hit molecules in drug discovery” (Journal of Cheminformatics, 2024):
One block for each compound: values may come before it.

Experiments:
Assay type in all cases: binding
WDR5 [1] = biological target: T1, WDR5 (Homo sapiens, UniProt P61964); test: DSF (Tm shift -4.[…] °C) plus WDR5-MYC peptide HTRF displacement with counter assay; design: full-length WDR5 (DSF); N-His, 1–334 (HTRF)
WDR5 [2] = biological target: T1, WDR5; test: DSF (Tm shift -1.[…] °C) plus WDR5-MYC peptide HTRF displacement with counter assay; design: full-length WDR5 (DSF); N-His, 1–334 (HTRF)
WDR5 [3] = biological target: T1, WDR5; test: WDR5-MYC peptide HTRF dose response, inactive in counter assay; design: N-His, 1–334; with MYC MbIIIb peptide (256–268 a.a.)

IC50 (WDR5 [1]): 35.6 µM
Structure (SMILES): O=C(c1cc2ccccc2[nH]1)N1CCn2ncc(N3C[C@@H](CO)OC3=O)c2C1 [PC-1]

IC50 (WDR5 [2]): 27.5 µM
Structure (SMILES): C[C@H]1Cc2noc(N3CCCCC3=O)c2CN1C(=O)c1cc2ccccc2[nH]1 [PC-2]

IC50 (WDR5 [3]): 28.5 µM
Structure (SMILES): CC1(C)CN(c2cnn3c2CN(C(=O)c2cc4c([nH]2)CCCC4)CC3)C(=O)O1 [PC-3]
